Results published in patent publication US20250186456A1, “PYRIMIDINE-FUSED CYCLIC COMPOUND AND PREPARATION METHOD AND USE THEREOF” (Genfleet Therapeutics (Shanghai) Inc., priority 2021, published 2025).
pIC50: −log10 of the molar value. Like-named read-outs stand apart in the source and are kept apart here.

Columns and labels:
Type in all cases: cell-based, human
AGS cells (KRAS G12D) = experiment: Cell proliferation inhibition assay, 3D, CellTiter-Glo 3D, AGS; settings: AGS 3D sphere model, 5 days incubation
From the text: (§1) AsPC-1 was purchased from ATCC; catalog No: CRL-1682; AGS was purchased from ATCC; catalog No: CRL-1739; RPMI1640 was purchased from Gibco; catalog No: 11875-093 2235123; F12K was purchased from Gibco; catalog No: 21127-022; FBS was purchased from Gibco; catalog No: 10099-141C; trypsin (containing EDTA) was purchased from Gibco; catalog No: 25200-072; CellTiter Glo-3D was purchased from Progema; catalog No: G9683; 384-well sphere plates were purchased from Corning; catalog No: 3830; white opaque 384-well plates were purchased from Corning; catalog No: 3570; cell counters were purchased from CHEMOMETEC; model: NC-200; microplate reader was purchased from PerkinElmer; model: Envison;
(§2) AsPC-1 is an endogenous human pancreatic cancer cell containing KRAS^G12D mutation, cultured in RPMI-1640 medium containing 10% FBS; AGS is a human gastric cancer cell line containing KRAS^G12D, cultured in F-12K medium containing 10% FBS. Cells in the logarithmic growth phase were taken, digested with trypsin (containing EDTA), collected, and counted. 800 AsPC-1 cells/well or 400 AGS cells/well, respectively, were seeded in a 384-well sphere plate and cultured overnight at 5% CO2 to establish a 3D cell model. 1000X stock solutions of compounds at a 3.16-fold concentration gradient of were prepared using DMSO, diluted 100-fold into a 10X compound stock solution using the medium described above. The 10X compound stock solution was added to each cell on 2nd day after cell seeding at a final concentration of 1X and a DMSO content of 0.1%. DMSO was used as a control in the experiment, and the medium was used as blank. After the addition of the compounds, the cells were incubated for 5 days. 30 μl of CellTiter-Glo work solution was added to each well, mixed well, and incubated for 30 minutes. After standing at room temperature for 30 minutes, 40 μl of the mixed solution was transferred to an opaque 384-well plate with a white clear bottom. Luminescence chemiluminescence value was read by a microplate reader, and the cell proliferation inhibition rate (IR (%)=(RLU control-RLU compound)/(RLU control-RLU blank)×100%) was calculated. The gradiently diluted concentration of the compounds and corresponding cell proliferation inhibition rate were fitted using XLFit four-parameters method, and the IC50 value was calculated. […] The results of some exemplary compounds are shown in Table 2 (“−” represents untested).

[1] = system: AsPC-1 cells (KRAS G12D mutation); experiment: Cell proliferation inhibition assay, 3D, CellTiter-Glo 3D, AsPC-1; settings: AsPC-1 3D sphere model, 5 days incubation
From the text: as §1, §2

[2] = system: p-ERK in AGS cells (KRAS G12D mutation); experiment: Cell p-ERK assay (HTRF, Advance ERK phospho-T202/Y204 kit); settings: AGS cells, 3 hours incubation with compound, HTRF, read-out: AGS p-ERK IC50
Experimental: AGS was purchased from ATCC; catalog No: CRL-1739; F12K was purchased from Gibco; catalog No: 21127-022; FBS was purchased from Gibco; catalog No: 10099-141C; trypsin (containing EDTA) was purchased from Gibco, catalog No: 25200-072; DMSO was purchased from VWRAMRESCO; catalog No: 0231-500 ML; 96-well cell culture plates were purchased from Corning; catalog No: 3599; white opaque 96-well plates were purchased from Cisbio; catalog No: 66PL96025; Advance ERK phospho-T202/Y204 kit was purchased from Cisbio; catalog No: 64AERPEH; cell counters were purchased from CHEMOMETEC; model No: NC-200; microplate reader was purchased from PerkinElmer; model No: Envison.
AGS is an endogenous human gastric adenocarcinoma cell line containing the KRAS^G12D mutation, cultured in F12K+10% FBS medium. On the first day of the experiment, cells in the logarithmic growth phase were taken, digested with trypsin (containing EDTA), collected, and counted. Approximately 20000 cells/well were seeded in a 96-well cell culture plate and cultured overnight in an incubator with 5% CO2. 1000X stock solutions of compounds at a 3.16-fold concentration gradient were prepared using DMSO, and diluted 200-fold into a 5X compound stock solution using the medium described above. The 5X compound stock solution was added to each cell culturing well the day after cell seeding at a final concentration of 1X and a DMSO content of 0.1%. DMSO was used as a control in the experiment. After the compound was added and the incubation was kept for 3 hours, the medium in the culture wells was removed. 50 μl of Cell lysis solution (from Advance ERK phospho-T202/Y204 kit, the same below) was added to each well, mixed well, and incubated for 30 minutes and then 16 μl of the mixed solution was transferred to a white opaque 96-well plate, another 16 μl of cell lysis solution was added to a well as a blank well. After transferring, 4 μl of p-ERK HTRF antibody mixture (from Advance ERK phospho-T202/Y204 kit) was added to each well. After incubation for 4 hours, HTRF fluorescence value (RLU) was read by a microplate reader, and p-ERK level inhibition rate (IR (%)=(RLU control-RLU compound)/(RLU control-RLU blank)×100%) of the compounds was calculated. The concentration of the compounds and corresponding cell p-ERK level inhibition rate were fitted using Prism 8 four-parameters method, and the IC50 value was calculated.

C#Cc1c(F)ccc2cccc(-c3nc4c5c(nc(OCC67CCCN6CCC7=C)nc5c3F)N3C[C@H]5CC[C@H](N5)[C@H]3[C@H](C)O4)c12 (stereo partly drawn) [Example Z600, (5S,5aS,6S,9R)-2-(8-ethynyl-7-fluoronaphthalen-1-yl)-1-fluoro-5-methyl-12-((1-methylenetetrahydro-1H-pyrrolizin-7a (5H)-yl)methoxy)-5a,6,7,8,9,10-hexahydro-5H-4-oxa-3,10a, 11, 13, 14-pentaaza-6,9-methanonaphtho[1,8-ab]heptalene]
pIC50 (AGS cells (KRAS G12D); Homo sapiens, 120 h): 7.81
pIC50 ([1]; Homo sapiens, ASPC1, 120 h): 7.19
pIC50 ([2]; Homo sapiens): 7.74

C#Cc1c(F)ccc2cccc(-c3nc4c5c(nc(OCC67CCCN6CC(=C(F)F)C7)nc5c3F)N3C[C@H]5CC[C@H](N5)[C@H]3[C@H](C)O4)c12 (stereo partly drawn) [Example Z608, (5S,5aS,6S,9R)-12-((2-(difluoromethylene)tetrahydro-1H-pyrrolizin-7a (5H)-yl)methoxy)-2-(8-ethynyl-7-fluoronaphthalen-1-yl)-1-fluoro-5-methyl-5a,6,7,8,9,10-hexahydro-5H-4-oxa-3,10a, 11,13,14-pentaaza-6,9-methanonaphtho[1,8-ab]heptalene]
pIC50 (AGS cells (KRAS G12D); Homo sapiens, 120 h): 7.08
pIC50 ([1]; Homo sapiens, ASPC1, 120 h): 6.84
pIC50 ([2]; Homo sapiens): 7.55

C#Cc1cccc2cc(N)cc(-c3nc4c5c(nc(OC[C@]67CCCN6CC(F)(F)C7)nc5c3F)N3C[C@H]5CC[C@H](N5)[C@H]3[C@H](C)O4)c12 [Example Z734, 4-((5S,5aS,6S,9R)-12-(((R)-2,2-difluorotetrahydro-1H-pyrrolizin-7a (5H)-yl)methoxy)-1-fluoro-5-methyl-5a,6,7,8,9,10-hexahydro-5H-4-oxa-3,10a, 11,13, 14-pentaaza-6,9-methanonaphtho[1,8-ab]heptalene-2-yl)-5-ethynylnaphthalen-2-amine]
pIC50 (AGS cells (KRAS G12D); Homo sapiens, 120 h): 7.77
pIC50 ([1]; Homo sapiens, ASPC1, 120 h): 7.92
pIC50 ([2]; Homo sapiens): 8.47

C#Cc1c(F)ccc2cccc(-c3nc4c5c(nc(OCC67CC(=C)CN6CCC76CC6)nc5c3F)N3C[C@H]5CC[C@H](N5)[C@H]3[C@H](C)O4)c12 (stereo partly drawn) [Example Z602, (58,5aS,6S,9R)-2-(8-ethynyl-7-fluoronaphthalen-1-yl)-1-fluoro-5-methyl-12-((6′-methylenetetrahydrospiro[cyclopropane-1, 1′-pyrrolizin]-7a′ (5′H)-yl)methoxy)-5a,6,7,8,9,10-hexahydro-5H-4-oxa-3,10a,11,13,14-pentaaza-6,9-methanonaphtho[1,8-ab]heptalene]
pIC50 (AGS cells (KRAS G12D)): 7.58
pIC50 [1]: 7.04
pIC50 [2]: 7.47

5-ethynyl-3-fluoro-4-((58,5aS,6S,9R)-1-fluoro-S-methyl-12-((1-(morpholinomethyl)cyclopropyl)methoxy)-5a,6,7,8,9,10-hexahydro-5H-4-oxa-3,10a, 11, 13,14-pentaaza-6,9-methanonaphtho[1,8-ab]heptalene-2-yl) naphthalen-2-amine [Example Z707]
pIC50 (AGS cells (KRAS G12D)): 8.13
pIC50 [1]: 8.28
pIC50 [2]: 9.02

C#Cc1c(F)ccc2cccc(-c3nc4c5c(nc(OC[C@@]67CC(=C)CN6CC[C@@H]7OC)nc5c3F)N3C[C@H]5CC[C@H](N5)[C@H]3[C@H](C)O4)c12 (single isomer, unassigned) [Example Z696]
pIC50 (AGS cells (KRAS G12D)): 6.22
pIC50 [1]: 6.16
pIC50 [2]: 7.14

C#Cc1cccc2cccc(-c3nc4c5c(nc(OCC67CC(=C)CN6C[C@H](F)C7)nc5c3F)N3C[C@H]5CC[C@H](N5)[C@H]3[C@H](C)O4)c12 (stereo partly drawn) [Example Z678, (5S,5aS,6S,9R)-2-(8-ethynylnaphthalen-1-yl)-1-fluoro-12-(((2R)-2-fluoro-6-methylenetetrahydro-1H-pyrrolizin-7a (5H)-yl)methoxy)-5-methyl-5a,6,7,8,9,10-hexahydro-5H-4-oxa-3,10a, 11, 13,14-pentaaza-6,9-methanonaphtho[1,8-ab]heptalene]
pIC50 (AGS cells (KRAS G12D); Homo sapiens, 120 h): 7.00
pIC50 ([1]; Homo sapiens, ASPC1, 120 h): 7.13
pIC50 ([2]; Homo sapiens): 7.91

C#Cc1c(F)ccc2cccc(-c3nc4c5c(nc(OCC67C[C@H](OC)CN6CCC7=C)nc5c3F)N3C[C@H]5CC[C@H](N5)[C@H]3[C@H](C)O4)c12 (stereo partly drawn) [Example Z694, (5S,5aS,6S,9R)-2-(8-ethynyl-7-fluoronaphthalen-1-yl)-1-fluoro-12-(((6S)-6-methoxy-1-methylenetetrahydro-1H-pyrrolizin-7a (5H)-yl)methoxy)-5-methyl-5a,6,7,8,9,10-hexahydro-5H-4-oxa-3,10a, 11,13,14-pentaaza-6,9-methanonaphtho[1,8-ab]heptalene]
pIC50 (AGS cells (KRAS G12D); Homo sapiens, 120 h): 6.40
pIC50 ([1]; Homo sapiens, ASPC1, 120 h): 6.39

C=C1CN2CCCC2(COc2nc3c4c(nc(-c5cccc6cccc(Cl)c56)c(F)c4n2)O[C@@H](CC)[C@@H]2[C@@H]4CC[C@H](CN32)N4)C1 (stereo partly drawn) [Example Z596, (5S,5aS,6S,9R)-2-(8-chloronaphthalen-1-yl)-5-ethyl-1-fluoro-12-((2-methylenetetrahydro-1H-pyrrolizin-7a (5H)-yl)methoxy)-5a,6,7,8,9,10-hexahydro-5H-4-oxa-3,10a,11,13,14-pentaaza-6,9-methanonaphtho[1,8-ab]heptalene]
pIC50 (AGS cells (KRAS G12D); Homo sapiens, 120 h): 6.57
pIC50 ([1]; Homo sapiens, ASPC1, 120 h): 6.39

C#Cc1c(F)ccc2cccc(-c3nc4c5c(nc(OCC67CC(=C)CN6CC[C@H]7OC)nc5c3F)N3C[C@H]5CC[C@H](N5)[C@H]3[C@H](C)O4)c12 (stereo partly drawn) [Example Z704, (58,5aS,6S,9R)-2-(8-ethynyl-7-fluoronaphthalen-1-yl)-1-fluoro-12-(((1R)-1-methoxy-6-methylenetetrahydro-1H-pyrrolizin-7a (5H)-yl)methoxy)-5-methyl-5a,6,7,8,9,10-hexahydro-5H-4-oxa-3,10a, 11, 13,14-pentaaza-6,9-methanonaphtho[1,8-ab]heptalene]
pIC50 ([1]; Homo sapiens, ASPC1, 120 h): 6.16
pIC50 ([2]; Homo sapiens): 6.27

C#Cc1c(F)ccc2cccc(-c3nc4c5c(nc(OCC67CC(=C)CN6C[C@@H](F)C7)nc5c3F)N3C[C@H]5CC[C@H](N5)[C@H]3[C@H](C)O4)c12 (stereo partly drawn) [Example Z634, (5S,5aS,6S,9R)-2-(8-ethynyl-7-fluoronaphthalen-1-yl)-1-fluoro-12-(((2S)-2-fluoro-6-methylenetetrahydro-1H-pyrrolizin-7a (5H)-yl)methoxy)-5-methyl-5a,6,7,8,9,10-hexahydro-5H-4-oxa-3,10a,11,13,14-pentaaza-6,9-methanonaphtho[1,8-ab]heptalene]
pIC50 ([1]; Homo sapiens, ASPC1, 120 h): 6.05
